From US20240279202A1 (NURIX THERAPEUTICS, INC., priority 2021, published 2024) come the findings set out here.

The DC50 is the midpoint of the concentration-degradation curve. A high value points to degradation only at high concentration. The Dmax is the largest share of the target that was removed. Low readings indicate shallow degradation, high ones deep degradation.

The structures appear in SMILES notation.

The target in the assay is T1, ITK (Homo sapiens, UniProt Q08881).
T1 sequence (Q08881 1-620): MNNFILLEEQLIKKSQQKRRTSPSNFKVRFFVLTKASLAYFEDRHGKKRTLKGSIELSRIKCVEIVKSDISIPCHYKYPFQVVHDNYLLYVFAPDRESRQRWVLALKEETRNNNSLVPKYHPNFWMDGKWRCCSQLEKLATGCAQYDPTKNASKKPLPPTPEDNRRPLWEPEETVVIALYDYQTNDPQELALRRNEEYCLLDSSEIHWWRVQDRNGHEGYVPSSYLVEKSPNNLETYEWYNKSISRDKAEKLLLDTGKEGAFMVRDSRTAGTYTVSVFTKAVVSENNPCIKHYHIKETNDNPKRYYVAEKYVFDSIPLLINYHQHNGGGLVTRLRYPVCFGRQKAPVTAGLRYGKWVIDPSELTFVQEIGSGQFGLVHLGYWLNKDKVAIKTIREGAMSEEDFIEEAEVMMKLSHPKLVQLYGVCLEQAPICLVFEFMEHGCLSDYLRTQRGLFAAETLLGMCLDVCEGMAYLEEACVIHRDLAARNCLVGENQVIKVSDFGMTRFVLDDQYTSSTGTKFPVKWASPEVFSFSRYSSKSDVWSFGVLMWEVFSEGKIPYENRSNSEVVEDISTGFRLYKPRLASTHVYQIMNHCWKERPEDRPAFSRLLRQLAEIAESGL
Kind of assay: ITK degradation MSD (Meso Scale Discovery) assay. Format: cell-based. Also on record: either human Jurkat (Clone E6-1 ATCC TIB-152) or Motl4 (ATCC CRL-1552), were plated; endogenous in cells; host or cells: Jurkat clone E6-1 (ATCC TIB-152) or Molt4 (ATCC CRL-1552). The note with it: Jurkat or Molt4 cells, 4 or 6 hrs. On the procedure: ITK Degradation MSD (Meso Scale Discovery) Assay Compound dilution series (7-point, 5 fold dilutions in DMSO, rows B-H with replicate in Column 1⁄2, 3⁄4, 5⁄6, 7,8, at 2000× the final required concentrations were prepared in 96 well plates (Falcon, cat. no. 353077). Row A, Column 1-8 were control DMSO. The 2000× solutions ranged from 2 mM to 128 nM (final assay concentration range 1 μM to […]). The 2000× solutions were added to cells in […], for a final DMSO concentration of 0.5% and final assay compound concentration of 1×. For the cells, either human Jurkat (Clone E6-1 ATCC TIB-152) or Motl4 (ATCC CRL-1552), were plated at 1×10^6 cells/mL, 100 μL/well ([…]) in complete RPMI (10% FBS, 1% L-glutamine). Cells were incubated for 4 or 6 hrs at 32° C./6% CO2. Following incubation, plates were centrifuged at 1200 rpm for 5 min. supernatant was removed and 50 μL of cell lysis buffer ((MSD Tris lysis buffer (R60TX), Complete Mini EDTA-free protease inhibitor (Sigma 11836170001), Protease Inhibitor Cocktail (Sigma, P2714), Phosphatase Inhibitor Cocktail 2 and 3 (Sigma, P5726 and P0044), and Benzonase (Sigma, E1014)) was added to each well. Plates were sealed and shook at 4° C. for 30 min. Plates were centrifuged and 45 μL was removed for plate assays. Assay plate preparation: Meso Scale Discovery (MSD) multi-array sm spot 96 well plates (Goat anti-Rabbit L^45-RA), were blocked with 3% BSA blocking buffer (3% Bovine Serum Albumin (Sigma A3059)+TBS 0.2% Tween-20) for 1 hr with gentle rocking at room temperature. Plates were then washed with 200 μL of 1× TBST (TBS 0.2% Tween-20) 3 times. After last wash, liquid was removed and 50 μL per well of capture antibody (abcam ITK Y402-ab32507) was added to plates at a 1:1000 dilution in blocking buffer (above). Plates were sealed and rocked at room temperature for 2 hrs. Plates were then washed 3 times with 200 μL of 1× TBST. After last wash, liquid was removed and 45 μL of cell lysate (from above) was added to each plate. Plates were sealed and rocked overnight at 4° C. Next day, cell lysates were removed, and assay plates were washed 3 times with 200 μL of 1× TBST. After last wash, liquid was removed and detection antibody (CST ITK (2F12) #2380) was added at 50 μL per well at a dilution of 1:1000 in blocking buffer. Plates were sealed and rocked at room temperature for 2 hrs. Plates were washed 3 times with 200 uL of 1× TBST. After last wash, liquid was removed, MSD Mouse anti-Rabbit sulfo tag (R32AC-1) was diluted to 1:1000 in blocking buffer. 50 μL was added to each well on the plate. Plates were sealed and incubated at room temperature for 1 hr. Plates were washed 3 times with 200 μL of 1× TBST. After last wash, liquid was removed and 150 μL of 1× MSD Read Buffer T ([…]) was then added to each well for ECL read out. For reading ECL signal, plate is read on a Meso Scale Discovery (MSD) MESO Sector S 600 plate reader. Percent ITK in then calculated as described below. Percent ITK remaining per sample was calculated as follows: [formula] Using Graphpad Prism, % ITK remaining values were plotted as a function of compound concentration. To determine DC50 and Dmax values, resulting curves were fit to the Prism curve-fitting equation “log(inhibitor) vs response-Variable slope (four parameters)” (reported best fit value IC50 used as DC50).
In the case of `C[C@@]12Cc3[nH]nc(C(=O)Nc4cnn([C@H](c5ccccc5)C5CN(C(=O)CCOCCOCCOCCOCCOCCOCCOCCOCCNc6cccc7c6C(=O)N(C6CCC(=O)NC6=O)C7=O)C5)c4)c3C[C@@H]1C2(F)F` (stereo partly drawn) [Compound 30, (4aS,5aR)-N-(1-((1S)-(1-(1-((2-(2,6-dioxopiperidin-3-yl)-1,3-dioxoisoindolin-4-yl)amino)-3,6,9,12,15,18,21,24-octaoxaheptacosan-27-oyl)azetidin-3-yl)(phenyl)methyl)-1H-pyrazol-4-yl)-5,5-difluoro-5a-methyl-1,4,4a,5,5a,6-hexahydrocyclopropa[f]indazole-3-carboxamide], the DC50 amounted to 20 nM and the Dmax was 92%.
For `C[C@@]12Cc3[nH]nc(C(=O)Nc4cnn([C@H](c5ccccc5)C5CN(C(=O)CCOCCOCCOCCOCCOCCNc6cccc7c6C(=O)N(C6CCC(=O)NC6=O)C7=O)C5)c4)c3C[C@@H]1C2(F)F` (stereo partly drawn) [Compound 29, (4aS,5aR)-N-(1-((1S)-(1-(1-((2-(2,6-dioxopiperidin-3-yl)-1,3-dioxoisoindolin-4-yl)amino)-3,6,9,12,15-pentaoxaoctadecan-18-oyl)azetidin-3-yl)(phenyl)methyl)-1H-pyrazol-4-yl)-5,5-difluoro-5a-methyl-1,4,4a,5,5a,6-hexahydrocyclopropa[f]indazole-3-carboxamide], it took 21 nM to reach half-maximal degradation (DC50) and the Dmax amounted to 95%.
In the same order, the values of `C[C@@]12Cc3[nH]nc(C(=O)Nc4cnn([C@H](c5ccccc5)C5CN(C(=O)CCOCCOCCOCCNc6cccc7c6C(=O)N(C6CCC(=O)NC6=O)C7=O)C5)c4)c3C[C@@H]1C2(F)F` (stereo partly drawn) [Compound 28, (4aS,5aR)-N-(1-((1S)-(1-(3-(2-(2-(2-((2-(2,6-dioxopiperidin-3-yl)-1,3-dioxoisoindolin-4-yl)amino)ethoxy)ethoxy)ethoxy)propanoyl)azetidin-3-yl)(phenyl)methyl)-1H-pyrazol-4-yl)-5,5-difluoro-5a-methyl-1,4,4a,5,5a,6-hexahydrocyclopropa[f]indazole-3-carboxamide] are 3.9 nM and 94%.
In the case of `C[C@@]12Cc3[nH]nc(C(=O)Nc4cnn([C@H](c5ccccc5)C5CN(CC6CN(c7ccc8c(c7)C(=O)N(C7CCC(=O)NC7=O)C8=O)CCO6)C5)c4)c3C[C@@H]1C2(F)F` (stereo partly drawn) [Compound 41, (4aS,5aR)-N-(1-((1S)-(1-((4-(2-(2,6-dioxopiperidin-3-yl)-1,3-dioxoisoindolin-5-yl)morpholin-2-yl)methyl)azetidin-3-yl)(phenyl)methyl)-1H-pyrazol-4-yl)-5,5-difluoro-5a-methyl-1,4,4a,5,5a,6-hexahydrocyclopropa[f]indazole-3-carboxamide], the DC50 stood at 0.57 nM and the maximal degradation (Dmax) was 86%.
The molecule `C[C@@]12Cc3[nH]nc(C(=O)Nc4cnn([C@H](c5ccccc5)C5CN(C(=O)CCCCc6cccc7c6CN(C6CCC(=O)NC6=O)C7=O)C5)c4)c3C[C@@H]1C2(F)F` (stereo partly drawn) [Compound 32, (4aS,5aR)-N-(1-((1S)-(1-(5-(2-(2,6-dioxopiperidin-3-yl)-1-oxoisoindolin-4-yl)pentanoyl)azetidin-3-yl)(phenyl)methyl)-1H-pyrazol-4-yl)-5,5-difluoro-5a-methyl-1,4,4a,5,5a,6-hexahydrocyclopropa[f]indazole-3-carboxamide] had a DC50 of 25 nM and a Dmax of 69%.
In the same order, the values of `C[C@@]12Cc3[nH]nc(C(=O)Nc4cnn([C@H](c5ccccc5)C5CN(C(=O)C6CN(C7CCN(c8ccc(NC9CCC(=O)NC9=O)cn8)CC7)C6)C5)c4)c3C[C@@H]1C2(F)F` (stereo partly drawn) [Compound 36, (4aS,5aR)-N-(1-((1S)-(1-(1-(1-(5-((2,6-dioxopiperidin-3-yl)amino)pyridin-2-yl)piperidin-4-yl)azetidine-3-carbonyl)azetidin-3-yl)(phenyl)methyl)-1H-pyrazol-4-yl)-5,5-difluoro-5a-methyl-1,4,4a,5,5a,6-hexahydrocyclopropa[f]indazole-3-carboxamide] are 1.6 nM and 72%.
